Experimental data taken from patent publication US20220396818A1, “POLYNUCLEOTIDE SYNTHESIS METHOD, KIT AND SYSTEM” (Oxford Nanopore Technologies PLC, priority 2019, published 2022).

What was measured:
[1] = system: Therminator X DNA polymerase; experiment: Incorporation of 3′-O-azidomethyl-dNTPs to the 3′ end of blunt-ended DNA by Therminator X DNA polymerase (gel); assay type: biochemical, Thermococcus species 9° N; conditions: presence of Mn2+ ions, 37° C.
Procedure: • 1. 5 μl of 10× Thermopol® buffer (20 mM Tris-HCl, 10 mM (NH4)2SO4, 10 mM KCl, 2 mM MgSO4, 0.1% Triton® X-100, pH 8.8, New England Biolabs) was mixed with 33.5 μl of sterile deionized water (ELGA VEOLIA) in a 1.5 ml Eppendorf tube. • 2. 2 μl of 20 μM primer (40 pmol, 1 equiv) (SEQ ID: NO: 68, FIG. 56a) and 3 μl of 20 μM template (60 pmol, 1.5 equiv) (SEQ ID: NO: 69, FIG. 56a) were added to the reaction mixture. • 3. 3′-O-modified-dTTP (2 μl of 100 μM) and MnCl2 (2.5 μl of 40 mM) were added. • 4. 2 μl of Therminator X DNA polymerase (20 U, New England BioLabs) was then added. • 5. The reaction was incubated for 30 minutes at 37° C. • 6. The reaction was stopped by addition of TBE-Urea sample buffer (Novex). • 7. The reaction was separated on polyacrylamide gel (15%) TBE buffer and visualized by ChemiDoc MP imaging system (BioRad).

[2] = system: Therminator IX DNA polymerase; experiment: Incorporation of 3′-O-modified-dNTPs opposite complementary base by Therminator IX DNA polymerase, with helper strand (gel); assay type: biochemical, Thermococcus species 9° N
Procedure: • 1. 2 μl of 10× Thermopol® buffer (20 mM Tris-HCl, 10 mM (NH4)2SO4, 10 mM KCl, 2 mM MgSO4, 0.1% Triton® X-100, pH 8.8, New England BioLabs) was mixed with 12.25 μl of sterile deionized water (ELGA VEOLIA) in 1.5 ml Eppendorf tube. • 2. 0.5 μl of 10 μM primer (5 pmol, 1 equiv) (SEQ ID NO: 22, FIG. 23j) and 0.75 μl of 10 μM template-A/G/T/C ([…], 1.5 equiv) (SEQ ID NOS: 23 to 26, FIG. 23j) and 1 μl of 10 μM helper strand-T/C/A/G (10 pmol, 2 equiv) (SEQ ID NOS: 27 to 30, FIG. 23j) were added to the reaction mixture. • 3. 3′-O-modified-dTTP/dCTP/dATP/dGTP (2 μl of 100 μM) and MnCl2 (1 μl of 40 mM) were added. • 4. 1.5 μl of Therminator IX DNA polymerase (15 U, New England BioLabs) was then added. • 5. […] The reaction was stopped by addition of TBE-Urea sample buffer (Novex). • 7. The reaction was separated on polyacrylamide gel (15%) TBE buffer and visualized by ChemiDoc MP imaging system (BioRad).
• 1. 5 μl of reaction mixture was added to 5 μl of TBE-Urea sample buffer (Novex) in a sterile 1.5 ml Eppendorf tube and heated to 95° C. for 5 minutes using a heat ThermoMixer (Eppendorf). • 2. 5 μl of the sample were then loaded into the wells of a 15% TBE-Urea gel 1.0 mm×10 well (Invitrogen) which contained preheated 1×TBE buffer Thermo Scientific (89 mM Tris, 89 mM boric acid and 2 mM EDTA). • 3. […]

DNA containing inosine [3] = experiment: Two-step cleavage of inosine-containing oligonucleotide with hAAG and base or Endo VIII (gel); assay type: biochemical
Procedure: A cleavage reaction on oligonucleotides was carried out using the procedure below: • 1. A pipette (Gilson) was used to transfer 41 μl sterile distilled water (ELGA VEOLIA) into a 1.5 ml Eppendorf tube. • 2. 50 of 10× ThermoPol® reaction buffer NEB (20 mM Tris-HCl, 10 mM (NH4)2SO4, 10 mM KCl, 2 mM MgSO4, 0.1% Triton® X-100, pH 8.8) were then added into the same Eppendorf tube. • 3. 10 each of oligonucleotides (FIG. 18e); template (SEQ ID NO: 3) or any fluorescently tagged long oligo strand, primer with T (SEQ ID NO: 4) and control (SEQ ID NO: 5) all at 5 pmols were added into the same tube. • 4. 10 of Human Alkyladenine DNA Glycosylase (hAAG) NEB (10 units/0) was added into the same tube. • 5. Reaction mixture was then gently mixed by resuspension with a pipette, centrifuged at 13,000 rpm for 5 seconds and incubated at 37° C. for 1 hour. • 6. Typically after incubation time had elapsed, the reaction was terminated by enzymatic heat inactivation (i.e. 65° C. for 20 minutes).
• 1. 2 μl (10-100 ng/0) DNA was added into a sterile 1.5 ml Eppendorf tube. • 2. 40 μl (0.2M) NaOH or 1.5 μl Endo VIII NEB (10 units/0) and 5 μl 10× Reaction Buffer NEB (10 mM Tris-HCl, 75 mM NaCl, 1 mM EDTA, pH 8 @ 25° C.) was also added into the same tube and gently mixed by resuspension and centrifugation at 13000 rpm for 5 sec. • 3. […]

Hairpin Oligonucleotide = experiment: Cleavage of hairpin oligonucleotide with Endonuclease V (gel); assay type: biochemical; conditions: 37° C.
Procedure: Cleavage reaction on hairpin oligonucleotides was carried out using the procedure below: • 1. A pipette (Gilson) was used to transfer 43 μl sterile distilled water (ELGA VEOLIA) into a 1.5 ml Eppendorf tube. • 2. 50 of 10× Reaction Buffer® NEB (50 mM potassium acetate, 20 mM Tris-acetate, 10 mM magnesium acetate, 1 mM DTT, pH 7.9@25° C.) was then added into the same Eppendorf tube. • 3. 111 of hairpin oligonucleotide (SEQ ID NO: 45, FIG. 28c) having an amount of 5 pmols was added into the same tube. • 4. 10 of Human Endonuclease V (Endo V) NEB (30 units/μl) was added into the same tube. • 5. […] Typically after incubation time had elapsed, the reaction was terminated by enzymatic heat inactivation (i.e. 65° C. for 20 minutes).
(§1) • 1. 5 μl of DNA and TBE-Urea sample buffer (Novex) was added into a sterile 1.5 ml Eppendorf tube and heated to 95° C. for 2 minutes using a heat ThermoMixer (Eppendorf). • 2. The DNA mixtures were then loaded into the wells of a 15% TBE-Urea gel 1.0 mm×10 well (Invitrogen) which contained preheated 1×TBE buffer Thermo Scientific (89 mM Tris, 89 mM boric acid and 2 mM EDTA). • 3. X-cell sure lock module (Novex) was fastened in place and electrophoresis performed at the following conditions; 260V, 90 Amps for 40 minutes at room temperature. • 4. Detection and visualization of DNA in the gel was carried out with ChemiDoc MP (BioRad) using Cy3 LEDS. Visualization and analysis was carried out on the Image lab 2.0 platform.

DNA containing inosine [4] = experiment: One-step cleavage of oligonucleotide with Endonuclease V (gel); assay type: biochemical; conditions: 37° C.
Procedure: Cleavage reaction on oligonucleotides was carried out using the procedure below: • 1. A pipette (Gilson) was used to transfer 41 μl sterile distilled water (ELGA VEOLIA) into a 1.5 ml Eppendorf tube. • 2. 50 of 10× Reaction Buffer® NEB (50 mM Potassium Acetate, 20 mM Tris-acetate, 10 mM Magnesium Acetate, 1 mM DTT, pH 7.9@25° C.) was then added into the same Eppendorf tube. • 3. 1 μl each of oligonucleotides (FIG. 24d); Template (SEQ ID NO: 31) or any fluorescently tagged long oligo strand, Primer with T (SEQ ID NO: 32) and control (SEQ ID NO: 33) and helper strand (SEQ ID NO: 34), all at 5 pmols, were added into the same tube. • 4. 1 μl of Human Endonuclease V (Endo V) NEB (10 units/μl) was added into the same tube. • 5. Reaction mixture was then gently mixed by resuspension with a pipette, centrifuged at 13,000 rpm for 5 seconds and incubated at 37° C. for 1 hour. • 6. Typically after incubation time had elapsed, reaction was terminated by enzymatic heat inactivation (i.e. 65° C. for 20 minutes).
as §1, with “thermoblock” for “ThermoMixer”, “Chemidoc” for “ChemiDoc”

3′-O-azidomethyl-dTTP
Incorporation efficiency [1]: > 99%
primer remains unextended ([2]; after 20 minutes at 37° C. and 47° C.): 10%
Incorporation ([2]; in the presence of a helper strand, after 5 minutes): 90%

3′-O-azidomethyl-dATP
Incorporation efficiency [1]: > 99%

3′-O-azidomethyl-dCTP
Incorporation efficiency [1]: > 90%

hAAG DNA glycosylase: Human Alkyladenine DNA Glycosylase (hAAG) NEB
yield of cleaved DNA (cleaved to uncleaved DNA ratio) (DNA containing inosine [3]; with a helper strand): 50%
yield of cleaved DNA (cleaved to uncleaved DNA ratio) (DNA containing inosine [3]; without a helper strand): 10%

3′-O-azidomethyl-dGTP
Incorporation efficiency [1]: > 99%

B1: Endo V: Human Endonuclease V (Endo V) NEB (protein, UniProt Q8N8Q3 1-282, looked up)
Endonuclease V: MALEAAGGPPEETLSLWKREQARLKAHVVDRDTEAWQRDPAFSGLQRVGGVDVSFVKGDSVRACASLVVLSFPELEVVYEESRMVSLTAPYVSGFLAFREVPFLLELVQQLREKEPGLMPQVLLVDGNGVLHHRGFGVACHLGVLTDLPCVGVAKKLLQVDGLENNALHKEKIRLLQTRGDSFPLLGDSGTVLGMALRSHDRSTRPLYISVGHRMSLEAAVRLTCCCCRFRIPEPVRQADICSREHIRKSLGLPGPPTPRSPKAQRPVACPKGDSGESSALC
yield of digested DNA (Hairpin Oligonucleotide; after 5 minutes): ~98%
yield of digested DNA (Hairpin Oligonucleotide; after 10 minutes): ~99%
yield of digested DNA (Hairpin Oligonucleotide; after 30 minutes): ~99%
yield of digested DNA (Hairpin Oligonucleotide; after 1 hr): ~99%
yield of cleaved DNA (cleaved to uncleaved DNA ratio) (DNA containing inosine [4]; positive control that contained both full length strands): 80%
DNA cleavage yield (DNA containing inosine [4]; with a helper strand): > 99%
yield of cleaved DNA (DNA containing inosine [4]; without a helper strand): > 99%
